{"source": "paper PMC4823954", "about": "“From fighting depression to conquering tumors: a novel tricyclic thiazepine compound as a tubulin polymerization inhibitor” (Cell Death & Disease, 2016)", "test_in_all_cases": "KINOMEscan", "format_in_all_cases": "binding", "conditions_in_all_cases": "read-out: % Ctrl", "key": {"AKT2": {"target": "T1, AKT2 (Homo sapiens, UniProt P31751)", "T1 construct": "purchased DiscoveRx KINOMEscan", "method_in_brief": "(§1)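 Competition binding panel of 442 non-mutant kinases: test compound at 5 and 10 μM competed with an active-site-directed ligand for 1 h with shaking. Bound kinase was eluted with 0.5 μM ligand and quantified by qPCR; %Ctrl = (compound − positive control)/(DMSO − positive control) × 100, lower meaning tighter binding.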"}, "AKT3": {"target": "T2, AKT3 (Homo sapiens, UniProt Q9Y243)", "T2 construct": "purchased DiscoveRx KINOMEscan", "method_in_brief": "as §1"}, "AMPK-alpha1": {"target": "T3, AMPK-alpha1 (Homo sapiens, UniProt Q13131)", "T3 construct": "purchased DiscoveRx KINOMEscan", "method_in_brief": "as §1"}, "BMPR1A": {"target": "T4, BMPR1A (Homo sapiens, UniProt P36894)", "T4 construct": "purchased DiscoveRx KINOMEscan", "method_in_brief": "as §1"}, "BRSK1": {"target": "T5, BRSK1 (Homo sapiens, UniProt Q8TDC3)", "T5 construct": "purchased DiscoveRx KINOMEscan", "method_in_brief": "as §1"}, "CAMK1D": {"target": "T6, CAMK1D (Homo sapiens, UniProt Q8IU85)", "T6 construct": "purchased DiscoveRx KINOMEscan", "method_in_brief": "as §1"}, "CDK9": {"target": "T7, CDK9 (Homo sapiens, UniProt P50750)", "T7 construct": "purchased DiscoveRx KINOMEscan", "method_in_brief": "as §1"}, "CSNK1G3": {"target": "T8, CSNK1G3 (Homo sapiens, UniProt Q9Y6M4)", "T8 construct": "purchased DiscoveRx KINOMEscan", "method_in_brief": "as §1"}, "DCAMKL1": {"target": "T9, DCAMKL1 (Homo sapiens, UniProt O15075)", "T9 construct": "purchased DiscoveRx KINOMEscan", "method_in_brief": "as §1"}, "EPHA5": {"target": "T10, EPHA5 (Homo sapiens, UniProt P54756)", "T10 construct": "purchased DiscoveRx KINOMEscan", "T10 sequence (P54756 25-1037)": "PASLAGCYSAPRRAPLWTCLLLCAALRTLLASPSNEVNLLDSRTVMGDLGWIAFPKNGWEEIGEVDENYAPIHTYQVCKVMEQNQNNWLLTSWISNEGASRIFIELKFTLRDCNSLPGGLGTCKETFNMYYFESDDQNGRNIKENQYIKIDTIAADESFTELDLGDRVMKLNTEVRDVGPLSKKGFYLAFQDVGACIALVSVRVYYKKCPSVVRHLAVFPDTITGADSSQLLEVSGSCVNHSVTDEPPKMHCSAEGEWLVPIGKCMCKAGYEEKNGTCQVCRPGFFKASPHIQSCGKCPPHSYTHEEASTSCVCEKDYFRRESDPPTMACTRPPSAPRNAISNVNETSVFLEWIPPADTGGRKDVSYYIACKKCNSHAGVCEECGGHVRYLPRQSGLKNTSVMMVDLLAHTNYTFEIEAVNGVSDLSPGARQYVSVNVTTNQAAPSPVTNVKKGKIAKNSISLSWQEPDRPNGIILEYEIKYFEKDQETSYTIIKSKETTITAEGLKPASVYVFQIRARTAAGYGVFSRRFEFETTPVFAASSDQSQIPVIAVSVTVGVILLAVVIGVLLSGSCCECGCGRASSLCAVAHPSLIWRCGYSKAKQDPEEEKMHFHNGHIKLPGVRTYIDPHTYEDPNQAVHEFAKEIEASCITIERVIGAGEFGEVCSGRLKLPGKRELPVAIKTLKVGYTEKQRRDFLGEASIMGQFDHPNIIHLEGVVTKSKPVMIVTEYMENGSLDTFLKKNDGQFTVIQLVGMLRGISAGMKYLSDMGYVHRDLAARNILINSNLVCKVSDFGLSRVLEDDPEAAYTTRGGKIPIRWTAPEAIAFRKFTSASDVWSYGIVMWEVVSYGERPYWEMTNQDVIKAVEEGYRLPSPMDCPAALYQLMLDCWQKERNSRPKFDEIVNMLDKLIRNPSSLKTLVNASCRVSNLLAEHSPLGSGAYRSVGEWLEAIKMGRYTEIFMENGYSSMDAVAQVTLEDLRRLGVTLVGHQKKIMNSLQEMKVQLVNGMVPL", "method_in_brief": "as §1"}, "EPHA8": {"target": "T11, EPHA8 (Homo sapiens, UniProt P29322)", "T11 construct": "purchased DiscoveRx KINOMEscan", "T11 sequence (P29322 28-1005)": "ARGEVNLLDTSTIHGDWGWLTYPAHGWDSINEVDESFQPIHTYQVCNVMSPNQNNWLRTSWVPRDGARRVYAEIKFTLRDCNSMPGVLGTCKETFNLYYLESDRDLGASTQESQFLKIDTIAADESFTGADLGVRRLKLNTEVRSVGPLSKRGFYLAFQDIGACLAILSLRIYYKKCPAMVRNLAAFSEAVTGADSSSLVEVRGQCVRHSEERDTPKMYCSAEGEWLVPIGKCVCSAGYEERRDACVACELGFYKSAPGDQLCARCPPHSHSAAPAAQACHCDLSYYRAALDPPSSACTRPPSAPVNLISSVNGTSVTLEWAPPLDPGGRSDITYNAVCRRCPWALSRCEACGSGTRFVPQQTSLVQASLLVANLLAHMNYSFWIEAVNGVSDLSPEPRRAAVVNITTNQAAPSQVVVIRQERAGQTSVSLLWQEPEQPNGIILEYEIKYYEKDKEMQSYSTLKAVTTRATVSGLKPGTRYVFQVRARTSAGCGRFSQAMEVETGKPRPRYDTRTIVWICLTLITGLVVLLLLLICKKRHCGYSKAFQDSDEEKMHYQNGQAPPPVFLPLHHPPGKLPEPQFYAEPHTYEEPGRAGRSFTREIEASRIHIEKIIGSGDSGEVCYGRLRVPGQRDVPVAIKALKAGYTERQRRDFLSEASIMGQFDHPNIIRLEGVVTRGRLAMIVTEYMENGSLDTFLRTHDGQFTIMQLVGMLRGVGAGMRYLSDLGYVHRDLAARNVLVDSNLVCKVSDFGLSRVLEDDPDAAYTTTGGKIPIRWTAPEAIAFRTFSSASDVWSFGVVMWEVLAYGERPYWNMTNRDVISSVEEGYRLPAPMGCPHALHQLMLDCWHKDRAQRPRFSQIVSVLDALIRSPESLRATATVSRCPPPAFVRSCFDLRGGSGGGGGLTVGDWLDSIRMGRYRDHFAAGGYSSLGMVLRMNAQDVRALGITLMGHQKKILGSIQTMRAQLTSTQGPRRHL", "method_in_brief": "as §1"}, "EPHB3": {"target": "T12, EPHB3 (Homo sapiens, UniProt P54753)", "T12 construct": "purchased DiscoveRx KINOMEscan", "method_in_brief": "as §1"}, "ERK3": {"target": "T13, ERK3 (Homo sapiens, UniProt Q16659)", "T13 construct": "purchased DiscoveRx KINOMEscan", "method_in_brief": "as §1"}, "FGR": {"target": "T14, FGR (Homo sapiens, UniProt P09769)", "T14 construct": "purchased DiscoveRx KINOMEscan", "method_in_brief": "as §1"}, "FRK": {"target": "T15, FRK (Homo sapiens, UniProt P42685)", "T15 construct": "purchased DiscoveRx KINOMEscan", "method_in_brief": "as §1"}, "HIPK1": {"target": "T16, HIPK1 (Homo sapiens, UniProt Q86Z02)", "T16 construct": "purchased DiscoveRx KINOMEscan", "method_in_brief": "as §1"}, "LATS2": {"target": "T17, LATS2 (Homo sapiens, UniProt Q9NRM7)", "T17 construct": "purchased DiscoveRx KINOMEscan", "method_in_brief": "as §1"}, "MAK": {"target": "T18, MAK (Homo sapiens, UniProt P20794)", "T18 construct": "purchased DiscoveRx KINOMEscan", "method_in_brief": "as §1"}, "MARK2": {"target": "T19, MARK2 (Homo sapiens, UniProt Q7KZI7)", "T19 construct": "purchased DiscoveRx KINOMEscan", "method_in_brief": "as §1"}, "MAST1": {"target": "T20, MAST1 (Homo sapiens, UniProt Q9Y2H9)", "T20 construct": "purchased DiscoveRx KINOMEscan", "method_in_brief": "as §1"}, "MKK7": {"target": "T21, MKK7 (Homo sapiens, UniProt O14733)", "T21 construct": "purchased DiscoveRx KINOMEscan", "method_in_brief": "as §1"}, "PAK4": {"target": "T22, PAK4 (Homo sapiens, UniProt O96013)", "T22 construct": "purchased DiscoveRx KINOMEscan", "method_in_brief": "as §1"}, "PAK6": {"target": "T23, PAK6 (Homo sapiens, UniProt Q9NQU5)", "T23 construct": "purchased DiscoveRx KINOMEscan", "method_in_brief": "as §1"}, "PDPK1": {"target": "T24, PDPK1 (Homo sapiens, UniProt O15530)", "T24 construct": "purchased DiscoveRx KINOMEscan", "method_in_brief": "as §1"}, "PIK3CA(M1043I)": {"target": "T25, PIK3CA(M1043I) (Homo sapiens, UniProt P42336, M1043I)", "T25 construct": "purchased DiscoveRx KINOMEscan"}, "PLK3": {"target": "T26, PLK3 (Homo sapiens, UniProt Q9H4B4)", "T26 construct": "purchased DiscoveRx KINOMEscan", "T26 sequence (Q9H4B4 whole entry)": "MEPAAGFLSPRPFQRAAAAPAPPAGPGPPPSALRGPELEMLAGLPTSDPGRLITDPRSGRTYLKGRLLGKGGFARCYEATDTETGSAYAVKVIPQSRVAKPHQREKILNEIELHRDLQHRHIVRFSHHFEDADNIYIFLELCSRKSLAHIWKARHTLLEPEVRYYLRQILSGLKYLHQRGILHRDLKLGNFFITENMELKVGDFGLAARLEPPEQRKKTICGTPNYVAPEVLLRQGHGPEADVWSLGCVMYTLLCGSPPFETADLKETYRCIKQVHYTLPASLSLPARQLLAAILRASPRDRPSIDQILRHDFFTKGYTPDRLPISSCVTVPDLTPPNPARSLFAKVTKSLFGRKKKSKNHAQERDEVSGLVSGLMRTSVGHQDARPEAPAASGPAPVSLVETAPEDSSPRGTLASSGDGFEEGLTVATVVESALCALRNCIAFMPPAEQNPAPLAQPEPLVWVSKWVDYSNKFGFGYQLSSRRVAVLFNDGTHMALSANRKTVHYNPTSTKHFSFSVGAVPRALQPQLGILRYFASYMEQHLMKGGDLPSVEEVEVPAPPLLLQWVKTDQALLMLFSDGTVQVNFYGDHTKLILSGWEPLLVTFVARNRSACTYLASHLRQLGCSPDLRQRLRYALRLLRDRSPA", "method_in_brief": "as §1"}, "PRKD3": {"target": "T27, PRKD3 (Homo sapiens, UniProt O94806)", "T27 construct": "purchased DiscoveRx KINOMEscan", "T27 sequence (O94806 whole entry)": "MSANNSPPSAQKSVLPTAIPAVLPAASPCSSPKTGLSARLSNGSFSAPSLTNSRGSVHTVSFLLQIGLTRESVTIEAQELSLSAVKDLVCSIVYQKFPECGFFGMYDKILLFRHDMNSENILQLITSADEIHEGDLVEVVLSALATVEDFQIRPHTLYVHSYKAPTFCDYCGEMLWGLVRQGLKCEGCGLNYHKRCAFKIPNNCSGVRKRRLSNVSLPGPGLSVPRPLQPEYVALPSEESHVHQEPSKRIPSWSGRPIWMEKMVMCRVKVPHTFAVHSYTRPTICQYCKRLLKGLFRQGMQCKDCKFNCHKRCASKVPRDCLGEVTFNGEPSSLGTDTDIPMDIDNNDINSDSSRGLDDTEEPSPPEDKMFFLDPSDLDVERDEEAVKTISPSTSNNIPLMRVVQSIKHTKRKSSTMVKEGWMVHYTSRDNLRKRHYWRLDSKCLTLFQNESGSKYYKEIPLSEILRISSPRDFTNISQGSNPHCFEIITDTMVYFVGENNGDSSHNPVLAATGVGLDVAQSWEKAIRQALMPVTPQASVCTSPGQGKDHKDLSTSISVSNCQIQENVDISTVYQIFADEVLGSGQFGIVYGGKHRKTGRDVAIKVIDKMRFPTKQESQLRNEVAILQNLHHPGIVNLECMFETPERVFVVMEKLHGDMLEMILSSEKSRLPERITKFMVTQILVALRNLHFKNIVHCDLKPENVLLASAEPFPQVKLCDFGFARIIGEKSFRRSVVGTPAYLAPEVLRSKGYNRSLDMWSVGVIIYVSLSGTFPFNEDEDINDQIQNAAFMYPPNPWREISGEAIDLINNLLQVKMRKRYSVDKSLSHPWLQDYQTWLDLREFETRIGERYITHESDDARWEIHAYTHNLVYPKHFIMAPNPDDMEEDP", "method_in_brief": "as §1"}, "PRP4": {"target": "T28, PRP4 (Homo sapiens, UniProt Q13523)", "T28 construct": "purchased DiscoveRx KINOMEscan", "T28 sequence (Q13523 whole entry)": "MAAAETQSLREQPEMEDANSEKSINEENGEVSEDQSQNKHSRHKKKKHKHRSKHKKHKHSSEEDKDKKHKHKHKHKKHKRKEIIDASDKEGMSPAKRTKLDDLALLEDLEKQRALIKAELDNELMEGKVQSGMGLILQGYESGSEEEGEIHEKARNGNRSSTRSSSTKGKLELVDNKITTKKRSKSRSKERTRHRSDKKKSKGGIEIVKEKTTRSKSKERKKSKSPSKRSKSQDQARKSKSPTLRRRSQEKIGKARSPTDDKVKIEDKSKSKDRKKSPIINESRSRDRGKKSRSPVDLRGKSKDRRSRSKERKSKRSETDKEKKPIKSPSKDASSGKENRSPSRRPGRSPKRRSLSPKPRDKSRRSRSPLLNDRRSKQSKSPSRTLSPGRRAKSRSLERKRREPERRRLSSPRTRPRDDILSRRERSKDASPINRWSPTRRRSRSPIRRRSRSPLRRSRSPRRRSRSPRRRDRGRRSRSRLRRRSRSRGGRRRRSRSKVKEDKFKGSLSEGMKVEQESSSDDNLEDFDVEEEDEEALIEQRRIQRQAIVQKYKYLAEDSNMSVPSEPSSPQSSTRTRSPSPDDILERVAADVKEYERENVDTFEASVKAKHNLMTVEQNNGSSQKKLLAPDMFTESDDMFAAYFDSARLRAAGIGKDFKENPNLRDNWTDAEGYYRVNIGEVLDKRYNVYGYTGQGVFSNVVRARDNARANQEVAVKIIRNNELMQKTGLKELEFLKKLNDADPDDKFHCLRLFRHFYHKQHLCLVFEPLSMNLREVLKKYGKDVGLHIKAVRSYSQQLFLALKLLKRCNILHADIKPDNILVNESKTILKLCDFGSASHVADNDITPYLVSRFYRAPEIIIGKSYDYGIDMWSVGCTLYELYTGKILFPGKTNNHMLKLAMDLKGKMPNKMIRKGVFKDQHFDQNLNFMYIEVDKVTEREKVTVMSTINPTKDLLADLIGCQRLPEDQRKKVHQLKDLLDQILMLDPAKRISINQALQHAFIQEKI", "method_in_brief": "as §1"}, "QSK": {"target": "T29, QSK (Homo sapiens, UniProt Q9Y2K2)", "T29 construct": "purchased DiscoveRx KINOMEscan", "method_in_brief": "as §1"}, "SRPK3": {"target": "T30, SRPK3 (Homo sapiens, UniProt Q9UPE1)", "T30 construct": "purchased DiscoveRx KINOMEscan", "T30 sequence (Q9UPE1 whole entry)": "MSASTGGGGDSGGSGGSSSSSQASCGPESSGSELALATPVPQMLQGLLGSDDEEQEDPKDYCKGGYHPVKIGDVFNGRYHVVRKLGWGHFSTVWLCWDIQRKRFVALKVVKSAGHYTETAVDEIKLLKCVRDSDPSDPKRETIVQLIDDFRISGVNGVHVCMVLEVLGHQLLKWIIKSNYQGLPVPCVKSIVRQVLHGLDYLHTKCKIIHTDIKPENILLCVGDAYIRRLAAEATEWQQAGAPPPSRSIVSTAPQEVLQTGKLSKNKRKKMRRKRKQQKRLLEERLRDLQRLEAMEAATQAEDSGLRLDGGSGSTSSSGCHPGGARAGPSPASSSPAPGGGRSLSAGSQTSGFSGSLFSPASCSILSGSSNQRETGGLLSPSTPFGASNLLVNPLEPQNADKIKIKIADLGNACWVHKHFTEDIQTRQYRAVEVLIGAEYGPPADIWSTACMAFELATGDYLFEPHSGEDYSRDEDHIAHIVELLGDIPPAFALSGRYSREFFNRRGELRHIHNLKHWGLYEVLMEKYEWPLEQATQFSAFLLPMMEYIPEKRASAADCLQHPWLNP", "method_in_brief": "as §1"}, "TIE1": {"target": "T31, TIE1 (Homo sapiens, UniProt P35590)", "T31 construct": "purchased DiscoveRx KINOMEscan", "method_in_brief": "as §1"}}}
{"smiles": "Cc1ccc(C2=Nc3cccnc3S(=O)(=O)c3ccccc32)cc1", "note": "[TBPT, 6-(p-tolyl)benzo[f] pyrido[2,3-b][1,4] thiazepine 11,11-dioxide]", "values": [{"measurement": "remaining binding at 5 µM", "setting": "AKT2; 5 μM", "value": 76, "unit": "%"}, {"measurement": "remaining binding at 10 µM", "setting": "AKT2; 10 μM", "value": 100, "unit": "%"}, {"measurement": "remaining binding at 5 µM", "setting": "AKT3; 5 μM", "value": 100, "unit": "%"}, {"measurement": "remaining binding at 10 µM", "setting": "AKT3; 10 μM", "value": 100, "unit": "%"}, {"measurement": "remaining binding at 5 µM", "setting": "AMPK-alpha1; 5 μM", "value": 100, "unit": "%"}, {"measurement": "remaining binding at 10 µM", "setting": "AMPK-alpha1; 10 μM", "value": 100, "unit": "%"}, {"measurement": "remaining binding at 5 µM", "setting": "BMPR1A; 5 μM", "value": 97, "unit": "%"}, {"measurement": "remaining binding at 10 µM", "setting": "BMPR1A; 10 μM", "value": 80, "unit": "%"}, {"measurement": "remaining binding at 5 µM", "setting": "BRSK1; 5 μM", "value": 100, "unit": "%"}, {"measurement": "remaining binding at 10 µM", "setting": "BRSK1; 10 μM", "value": 97, "unit": "%"}, {"measurement": "remaining binding at 5 µM", "setting": "CAMK1D; 5 μM", "value": 81, "unit": "%"}, {"measurement": "remaining binding at 10 µM", "setting": "CAMK1D; 10 μM", "value": 91, "unit": "%"}, {"measurement": "remaining binding at 5 µM", "setting": "CDK9; 5 μM", "value": 100, "unit": "%"}, {"measurement": "remaining binding at 10 µM", "setting": "CDK9; 10 μM", "value": 100, "unit": "%"}, {"measurement": "remaining binding at 5 µM", "setting": "CSNK1G3; 5 μM", "value": 100, "unit": "%"}, {"measurement": "remaining binding at 10 µM", "setting": "CSNK1G3; 10 μM", "value": 98, "unit": "%"}, {"measurement": "remaining binding at 5 µM", "setting": "DCAMKL1; 5 μM", "value": 100, "unit": "%"}, {"measurement": "remaining binding at 10 µM", "setting": "DCAMKL1; 10 μM", "value": 89, "unit": "%"}, {"measurement": "remaining binding at 5 µM", "setting": "EPHA5; 5 μM", "value": 92, "unit": "%"}, {"measurement": "remaining binding at 10 µM", "setting": "EPHA5; 10 μM", "value": 100, "unit": "%"}, {"measurement": "remaining binding at 5 µM", "setting": "EPHA8; 5 μM", "value": 96, "unit": "%"}, {"measurement": "remaining binding at 10 µM", "setting": "EPHA8; 10 μM", "value": 93, "unit": "%"}, {"measurement": "remaining binding at 5 µM", "setting": "EPHB3; 5 μM", "value": 96, "unit": "%"}, {"measurement": "remaining binding at 10 µM", "setting": "EPHB3; 10 μM", "value": 100, "unit": "%"}, {"measurement": "remaining binding at 5 µM", "setting": "ERK3; 5 μM", "value": 100, "unit": "%"}, {"measurement": "remaining binding at 10 µM", "setting": "ERK3; 10 μM", "value": 100, "unit": "%"}, {"measurement": "remaining binding at 5 µM", "setting": "FGR; 5 μM", "value": 97, "unit": "%"}, {"measurement": "remaining binding at 10 µM", "setting": "FGR; 10 μM", "value": 73, "unit": "%"}, {"measurement": "remaining binding at 5 µM", "setting": "FRK; 5 μM", "value": 100, "unit": "%"}, {"measurement": "remaining binding at 10 µM", "setting": "FRK; 10 μM", "value": 99, "unit": "%"}, {"measurement": "remaining binding at 5 µM", "setting": "HIPK1; 5 μM", "value": 71, "unit": "%"}, {"measurement": "remaining binding at 10 µM", "setting": "HIPK1; 10 μM", "value": 63, "unit": "%"}, {"measurement": "remaining binding at 5 µM", "setting": "LATS2; 5 μM", "value": 100, "unit": "%"}, {"measurement": "remaining binding at 10 µM", "setting": "LATS2; 10 μM", "value": 100, "unit": "%"}, {"measurement": "remaining binding at 5 µM", "setting": "MAK; 5 μM", "value": 94, "unit": "%"}, {"measurement": "remaining binding at 10 µM", "setting": "MAK; 10 μM", "value": 100, "unit": "%"}, {"measurement": "remaining binding at 5 µM", "setting": "MARK2; 5 μM", "value": 86, "unit": "%"}, {"measurement": "remaining binding at 10 µM", "setting": "MARK2; 10 μM", "value": 84, "unit": "%"}, {"measurement": "remaining binding at 5 µM", "setting": "MAST1; 5 μM", "value": 45, "unit": "%"}, {"measurement": "remaining binding at 10 µM", "setting": "MAST1; 10 μM", "value": 87, "unit": "%"}, {"measurement": "remaining binding at 5 µM", "setting": "MKK7; 5 μM", "value": 100, "unit": "%"}, {"measurement": "remaining binding at 10 µM", "setting": "MKK7; 10 μM", "value": 100, "unit": "%"}, {"measurement": "remaining binding at 5 µM", "setting": "PAK4; 5 μM", "value": 100, "unit": "%"}, {"measurement": "remaining binding at 10 µM", "setting": "PAK4; 10 μM", "value": 100, "unit": "%"}, {"measurement": "remaining binding at 5 µM", "setting": "PAK6; 5 μM", "value": 100, "unit": "%"}, {"measurement": "remaining binding at 10 µM", "setting": "PAK6; 10 μM", "value": 100, "unit": "%"}, {"measurement": "remaining binding at 5 µM", "setting": "PDPK1; 5 μM", "value": 100, "unit": "%"}, {"measurement": "remaining binding at 10 µM", "setting": "PDPK1; 10 μM", "value": 100, "unit": "%"}, {"measurement": "remaining binding at 5 µM", "setting": "PIK3CA(M1043I); 5 μM", "value": 100, "unit": "%"}, {"measurement": "remaining binding at 10 µM", "setting": "PIK3CA(M1043I); 10 μM", "value": 100, "unit": "%"}, {"measurement": "remaining binding at 5 µM", "setting": "PLK3; 5 μM", "value": 95, "unit": "%"}, {"measurement": "remaining binding at 10 µM", "setting": "PLK3; 10 μM", "value": 75, "unit": "%"}, {"measurement": "remaining binding at 5 µM", "setting": "PRKD3; 5 μM", "value": 100, "unit": "%"}, {"measurement": "remaining binding at 10 µM", "setting": "PRKD3; 10 μM", "value": 78, "unit": "%"}, {"measurement": "remaining binding at 5 µM", "setting": "PRP4; 5 μM", "value": 99, "unit": "%"}, {"measurement": "remaining binding at 10 µM", "setting": "PRP4; 10 μM", "value": 100, "unit": "%"}, {"measurement": "remaining binding at 5 µM", "setting": "QSK; 5 μM", "value": 76, "unit": "%"}, {"measurement": "remaining binding at 10 µM", "setting": "QSK; 10 μM", "value": 100, "unit": "%"}, {"measurement": "remaining binding at 5 µM", "setting": "SRPK3; 5 μM", "value": 100, "unit": "%"}, {"measurement": "remaining binding at 10 µM", "setting": "SRPK3; 10 μM", "value": 89, "unit": "%"}, {"measurement": "remaining binding at 5 µM", "setting": "TIE1; 5 μM", "value": 100, "unit": "%"}, {"measurement": "remaining binding at 10 µM", "setting": "TIE1; 10 μM", "value": 98, "unit": "%"}]}
